What is called pIC50 is −log10 of the IC50, conventionally taken in molar units.

pIC50: −log10 of the molar value. Read-outs that look alike come from different tables or passages of the source.

From patent US20100222328A1, “2-CYCLOPROPYL-THIAZOLE DERIVATIVES” (priority 2007, published 2010) come the findings set out here.

The target of one assay is T1, human orexin-1 receptor (Homo sapiens, UniProt O43613).
T1 construct: expressed in transfected cells; host or cells: CHO cells (grown under G418 selection)
T1 sequence (O43613 1-425): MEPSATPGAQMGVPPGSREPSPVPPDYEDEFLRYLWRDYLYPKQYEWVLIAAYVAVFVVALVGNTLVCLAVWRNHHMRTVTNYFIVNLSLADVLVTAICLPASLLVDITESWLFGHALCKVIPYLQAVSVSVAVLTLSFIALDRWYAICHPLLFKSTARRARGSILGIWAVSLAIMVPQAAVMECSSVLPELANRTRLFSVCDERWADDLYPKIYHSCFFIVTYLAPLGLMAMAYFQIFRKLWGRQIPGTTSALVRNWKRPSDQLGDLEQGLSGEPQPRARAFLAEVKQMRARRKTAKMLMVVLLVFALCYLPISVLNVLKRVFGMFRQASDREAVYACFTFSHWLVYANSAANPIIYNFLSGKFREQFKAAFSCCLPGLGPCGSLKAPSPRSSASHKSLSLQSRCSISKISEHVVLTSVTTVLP
Kind of assay: Intracellular calcium measurements (FLIPR), CHO cells expressing the human orexin-1 receptor, orexin-A as agonist. Format: cell-based. To be noted: 3 nM orexin-A, read-out: OX1 IC50. How it is done: (§1) The orexin receptor antagonistic activity of the compounds of formula (I) is determined in accordance with the following experimental method.
(§2) Chinese hamster ovary (CHO) cells expressing the human orexin-1 receptor and the human orexin-2 receptor, respectively, are grown in culture medium (Ham F-12 with L-Glutamine) containing 300 μg/ml G418, 100 U/ml penicillin, 100 μg/ml streptomycin and 10% heat inactivated fetal calf serum (FCS). The cells are seeded at 20′000 cells/well into 384-well black clear bottom sterile plates (Greiner). The seeded plates are incubated overnight at 37° C. in 5% CO2.
(§3) Human orexin-A as an agonist is prepared as 1 mM stock solution in MeOH: water (1:1), diluted in HBSS containing 0.1% bovine serum albumin (BSA), NaHCO3: 0.375g/l and 20 mM HEPES for use in the assay at a final concentration of 3 nM.
(§4) Antagonists are prepared as 10 mM stock solution in DMSO, then diluted in 384-well plates using DMSO followed by a transfer of the dilutions into in HBSS containing 0.1% bovine serum albumin (BSA), NaHCO3: 0.375 g/l and 20 mM HEPES. On the day of the assay, 50 μl of staining buffer (HBSS containing 1% FCS, 20 mM HEPES, NaHCO3: 0.375 g/l, 5 mM probenecid (Sigma) and 3 μM of the fluorescent calcium indicator fluo-4 AM (1 mM stock solution in DMSO, containing 10% pluronic) is added to each well. The 384-well cell-plates are incubated for 50 min at 37° C. in 5% CO2 followed by equilibration at rt for 30-120 min before measurement.
(§5) Within the Fluorescent Imaging Plate Reader (FLIPR2 or FLIPR Tetra, Molecular Devices), antagonists are added to the plate in a volume of 10 μl/well, incubated for 10 min and finally 10 μl/well of agonist is added. Fluorescence is measured for each well at 1 second intervals, and the height of each fluorescence peak is compared to the height of the fluorescence peak induced by 3 nM orexin-A with vehicle in place of antagonist. For each antagonist, the IC50 value (the concentration of compound needed to inhibit 50% of the agonistic response) is determined. The calculated IC50 values of the compounds may fluctuate depending on the daily cellular assay performance. Fluctuations of this kind are known to those skilled in the art.

The next assay concerns the target T2, human orexin-2 receptor (Homo sapiens, UniProt O43614).
T2 construct: expressed in transfected cells; host or cells: CHO cells (grown under G418 selection)
T2 sequence (O43614 1-444): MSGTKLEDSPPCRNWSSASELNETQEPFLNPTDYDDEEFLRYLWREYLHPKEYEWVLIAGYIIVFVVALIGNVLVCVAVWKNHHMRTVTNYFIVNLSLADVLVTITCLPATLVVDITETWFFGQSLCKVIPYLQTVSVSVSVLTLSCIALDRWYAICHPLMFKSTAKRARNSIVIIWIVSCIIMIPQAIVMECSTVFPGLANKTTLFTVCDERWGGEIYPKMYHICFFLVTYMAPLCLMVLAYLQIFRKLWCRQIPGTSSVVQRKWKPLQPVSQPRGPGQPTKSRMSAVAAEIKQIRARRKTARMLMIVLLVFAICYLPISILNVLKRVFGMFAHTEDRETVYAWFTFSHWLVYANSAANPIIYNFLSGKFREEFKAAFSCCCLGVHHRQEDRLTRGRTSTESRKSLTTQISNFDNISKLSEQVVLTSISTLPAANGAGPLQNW
The assay is described as follows: Intracellular calcium measurements (FLIPR), CHO cells expressing the human orexin-2 receptor, orexin-A as agonist. In kind it is cell-based. To be noted: 3 nM orexin-A, read-out: OX2 IC50. How it is done:
as §1, §2, §3, §4, §5
A general note: A change in cytosolic calcium serves as a functional read-out for many receptors and channels.

Consider `Cc1cccc(C(=O)NC[C@@H]2CCCCN2C(=O)c2nc(C3CC3)sc2-c2ccccc2F)c1` [Example 1, (S)—N-{1-[2-Cyclopropyl-5-(2-fluoro-phenyl)-thiazole-4-carbonyl]-piperidin-2-ylmethyl}-3-methyl-benzamide], for which the pIC50 at human orexin-1 receptor (measured on FLIPR2) was 7.72; on human orexin-2 receptor (measured on FLIPR2), 7.80.

As for `O=C(NC[C@@H]1CCCCN1C(=O)c1nc(C2CC2)sc1-c1ccccc1F)c1cccc2cccnc12` [Example 5, (S)-Quinoline-8-carboxylic acid {1-[2-cyclopropyl-5-(2-fluoro-phenyl)-thiazole-4-carbonyl]-piperidin-2-ylmethyl}-amide], the pIC50 is 8.29 at human orexin-1 receptor (measured on FLIPR2) and 8.11 on human orexin-2 receptor (measured on FLIPR2).

For the molecule `Cc1nc2sccn2c1C(=O)NC[C@@H]1CCCCN1C(=O)c1nc(C2CC2)sc1-c1ccccc1F` [Example 10, (S)-6-Methyl-imidazo[2,1-b]thiazole-5-carboxylic acid {1-[2-cyclopropyl-5-(2-fluoro-phenyl)-thiazole-4-carbonyl]-piperidin-2-ylmethyl}-amide], the values for the negative logarithm of the IC50 (pIC50) on human orexin-1 receptor (measured on FLIPR2) and on human orexin-2 receptor (measured on FLIPR2) were 8.74 and 8.52, respectively.

On to `Cc1ccc(-c2sc(C3CC3)nc2C(=O)N2CCCC[C@H]2CNC(=O)c2c(C)nc3sccn23)cc1` [Example 31, (S)-6-Methyl-imidazo[2,1-b]thiazole-5-carboxylic acid [1-(2-cyclopropyl-5-p-tolyl-thiazole-4-carbonyl)-piperidin-2-ylmethyl]-amide], for which the results for the pIC50 at human orexin-1 receptor (measured on FLIPR2) and on human orexin-2 receptor (measured on FLIPR2) were 8.66 and 8.07, respectively.

Consider `Cc1cccc(-c2sc(C3CC3)nc2C(=O)N2CCCC[C@H]2CNC(=O)c2cc3occc3n2C)c1` [Example 51, (S)-4-Methyl-4H-furo[3,2-b]pyrrole-5-carboxylic acid [1-(2-cyclopropyl-5-m-tolyl-thiazole-4-carbonyl)-piperidin-2-ylmethyl]-amide], for which the negative logarithm of the IC50 (pIC50) at human orexin-1 receptor (measured on FLIPR2) is 7.60; at human orexin-2 receptor (measured on FLIPR2), 7.82.

For `O=C(NC[C@@H]1CCCCN1C(=O)c1nc(C2CC2)sc1-c1cccc(Cl)c1)c1noc2ccccc12` [Example 68, (S)-Benzo[d]isoxazole-3-carboxylic acid {1-[5-(3-chloro-phenyl)-2-cyclopropyl-thiazole-4-carbonyl]-piperidin-2-ylmethyl}-amide], the negative-log IC50 (pIC50) on human orexin-1 receptor (measured on FLIPR2) is 7.72; at human orexin-2 receptor (measured on FLIPR2), 7.96.

On to `O=C(NC[C@@H]1CCCCN1C(=O)c1nc(C2CC2)sc1-c1cccc(C(F)(F)F)c1)c1cccc(Br)c1` [Example 71, (S)-3-Bromo-N-{1-[2-cyclopropyl-5-(3-trifluoromethyl-phenyl)-thiazole-4-carbonyl]-piperidin-2-ylmethyl}-benzamide], for which the negative logarithm of the IC50 (pIC50) was 8.14 on human orexin-1 receptor (measured on FLIPR2) and 7.59 on human orexin-2 receptor (measured on FLIPR2).

As to `O=C(NC[C@@H]1CCCN1C(=O)c1nc(C2CC2)sc1-c1ccc(F)cc1)c1cccc2occc12` [Example 88, (S)-Benzofuran-4-carboxylic acid {1-[2-cyclopropyl-5-(4-fluoro-phenyl)-thiazole-4-carbonyl]-pyrrolidin-2-ylmethyl}-amide], the negative-log IC50 (pIC50) at human orexin-1 receptor (measured on FLIPR2) was 7.64; on human orexin-2 receptor (measured on FLIPR2), 7.82.

Turning to `O=C(NC[C@@H]1CCCCN1C(=O)c1nc(C2CC2)sc1-c1ccccc1)c1cnc2sccn12` [Example 96, (S)-Imidazo[2,1-b]thiazole-5-carboxylic acid [1-(2-cyclopropyl-5-phenyl-thiazole-4-carbonyl)-piperidin-2-ylmethyl]-amide], the pIC50 is 8.44 at human orexin-1 receptor (measured on FLIPR Tetra) and 8.35 on human orexin-2 receptor (measured on FLIPR Tetra).

Turning to `Cn1nc(C(=O)NC[C@@H]2CCCCN2C(=O)c2nc(C3CC3)sc2-c2ccccc2)c2ccccc21` [Example 100, (S)-1-Methyl-1H-indazole-3-carboxylic acid [1-(2-cyclopropyl-5-phenyl-thiazole-4-carbonyl)-piperidin-2-ylmethyl]-amide], the pIC50 at human orexin-1 receptor (measured on FLIPR Tetra) was 7.85; at human orexin-2 receptor (measured on FLIPR Tetra), 7.70.

With `Cc1cccc(-c2sc(C3CC3)nc2C(=O)N2CCCC[C@H]2CNC(=O)c2cccc3c2CCO3)c1` [Example 107, (S)-2,3-Dihydro-benzofuran-4-carboxylic acid [1-(2-cyclopropyl-5-m-tolyl-thiazole-4-carbonyl)-piperidin-2-ylmethyl]-amide], the values for the negative logarithm of the IC50 (pIC50) on human orexin-1 receptor (measured on FLIPR Tetra) and at human orexin-2 receptor (measured on FLIPR Tetra) were 7.74 and 7.66, respectively.

`Cc1cccc(-c2sc(C3CC3)nc2C(=O)N2CCCC[C@H]2CNC(=O)c2cccc(F)c2C)c1` [Example 114, (S)—N-[1-(2-Cyclopropyl-5-m-tolyl-thiazole-4-carbonyl)-piperidin-2-ylmethyl]-3-fluoro-2-methyl-benzamide]: the negative-log IC50 (pIC50) is 7.82 on human orexin-1 receptor (measured on FLIPR Tetra) and 7.72 at human orexin-2 receptor (measured on FLIPR Tetra).

In the case of `Cn1c(C(=O)NC[C@@H]2CCCCN2C(=O)c2nc(C3CC3)sc2-c2ccccc2)cc2occc21` [Example 131, (S)-4-Methyl-4H-furo[3,2-b]pyrrole-5-carboxylic acid [1-(2-cyclopropyl-5-phenyl-thiazole-4-carbonyl)-piperidin-2-ylmethyl]-amide], the pIC50 was 6.91 at human orexin-1 receptor (measured on FLIPR Tetra) and 7.77 at human orexin-2 receptor (measured on FLIPR Tetra).
